Measured values as given in article PMC9694544, “Conteltinib (CT-707) in patients with advanced ALK-positive non-small cell lung cancer: a multicenter, open-label, first-in-human phase 1 study” (BMC Medicine, 2022).
Read-outs that look alike come from different tables or passages of the source.

Assay: clinical
Conditions: human, in vivo; for AUC(0-inf): read-out: AUCINF_obs; for Cmax: read-out: Cmax
Protocol: For single-dose PK parameters, plasma samples were taken at pre-dose and 0.5 h, 1 h, 2 h, 3 h, 4 h, 6 h, 8 h, 12 h, 24 h, 48 h, 72 h, 96 h, 120 h, 144 h, and 168 h post-dose in PK lead-in phase of dose-escalation phase, and plasma samples were also taken at pre-dose and 0.5 h, 1 h, 2 h, 3 h, 4 h, 6 h, 8 h, 12 h, and 24 h post-dose in cycle 1 day 1 of dose-expansion phase. During continuous dosing, serial plasma samples were collected at pre-dose in cycle 1 day 15, pre-dose in cycle 1 day 22, pre-dose and 0.5 h, 1 h, 2 h, 3 h, 4 h, 6 h, 8 h, 12 h, and 24 h post-dose in cycle 1 day 28 for all dose cohorts. The following PK parameters were assessed: area under the concentration-time curve from the time of dosing extrapolated to infinity, based on the last observed concentration (AUCINF_obs); area under the concentration-time curve from the time of dosing to the time of last observation (AUClast); maximum concentration (Cmax); time to maximum concentration (Tmax); elimination half-life (T1/2); and mean residence time from the time of dosing to the time of the last measurable concentration (MRTlast).

[1] = cycle 1 day 28 of dose-escalation phase, 600 mg (n=7), mean
[2] = cycle 1 day 28 of dose-escalation phase, 800 mg (n=2), mean
[3] = single dose, PK lead-in phase of dose-escalation phase, 50 mg (n=2), mean
[4] = single dose, PK lead-in phase of dose-escalation phase, 100 mg (n=3), mean
[5] = single dose, PK lead-in phase of dose-escalation phase, 200 mg (n=3), mean
[6] = single dose, PK lead-in phase of dose-escalation phase, 300 mg (n=3), mean
[7] = single dose, PK lead-in phase of dose-escalation phase, 450 mg (n=4), mean
[8] = single dose, PK lead-in phase of dose-escalation phase, 600 mg (n=7), mean
[9] = single dose, PK lead-in phase of dose-escalation phase, 800 mg (n=3), mean

Q: Which Tmax (cycle 1 day 28 of dose-escalation phase, 450 mg (n=3), mean, read-out: Tmax) does the source give for COc1cc(N2CCC(N3CCN(C)CC3)CC2)ccc1Nc1nc2c(c(Nc3ccccc3S(=O)(=O)NC(C)C)n1)CCN2 [Conteltinib] here?
A: The Tmax was 4.3 h.

Q: What about the AUC(0-t) [1] of the same compound?
A: Its AUC(0-t) is 14000 ng·h/mL.

Q: What about the MRT last [1] of the same compound?
A: The MRT last was 10.8 h.

Q: And the AUC(0-inf) [1]?
A: Its AUC(0-inf) is 53800 ng·h/mL.

Q: And the Cmax [1]?
A: The Cmax was 985 ng/mL.

Q: And the half-life (cycle 1 day 28 of dose-escalation phase, 600 mg (n=7), mean, read-out: T1/2 (converted))?
A: Its half-life is 45 h.

Q: And the Tmax (cycle 1 day 28 of dose-escalation phase, 600 mg (n=7), mean, read-out: Tmax)?
A: Its Tmax is 2.5 h.

Q: What about the AUC(0-t) [2] of the same compound?
A: The AUC(0-t) was 5500 ng·h/mL.

Q: What about the MRT last [2] of the same compound?
A: The MRT last was 11.6 h.

Q: And the AUC(0-inf) [2]?
A: Its AUC(0-inf) is 27200 ng·h/mL.

Q: What about the Cmax [2] of the same compound?
A: Its Cmax is 305 ng/mL.

Q: What about the half-life (cycle 1 day 28 of dose-escalation phase, 800 mg (n=2), mean, read-out: T1/2 (converted)) of the same compound?
A: The half-life was 52.7 h.

Q: What about the Tmax (cycle 1 day 28 of dose-escalation phase, 800 mg (n=2), mean, read-out: Tmax) of the same compound?
A: Its Tmax is 3.5 h.

Q: And the half-life (multiple-dose administration, read-out: mean T1/2 across dose cohorts)?
A: Its half-life is 26.3 to 352 h.

Q: And the Tmax (multiple-dose administration, read-out: mean Tmax across dose cohorts)?
A: The Tmax was 1.5 to 4.3 h.

Q: What about the AUC(0-t) [3] of the same compound?
A: Its AUC(0-t) is 125 ng·h/mL.

Q: And the MRT last [3]?
A: Its MRT last is 8.1 h.

Q: And the AUC(0-inf) [3]?
A: Its AUC(0-inf) is 206 ng·h/mL.

Q: And the Cmax [3]?
A: Its Cmax is 16.3 ng/mL.

Q: And the half-life (single dose, PK lead-in phase of dose-escalation phase, 50 mg (n=2), mean, read-out: T1/2 (converted))?
A: Its half-life is 22.5 h.

Q: And the Tmax (single dose, PK lead-in phase of dose-escalation phase, 50 mg (n=2), mean, read-out: Tmax)?
A: Its Tmax is 2 h.

Q: What about the AUC(0-t) [4] of the same compound?
A: The AUC(0-t) was 732 ng·h/mL.

Q: What about the MRT last [4] of the same compound?
A: Its MRT last is 30.3 h.

Q: And the AUC(0-inf) [4]?
A: Its AUC(0-inf) is 1050 ng·h/mL.

Q: What about the Cmax [4] of the same compound?
A: Its Cmax is 69 ng/mL.

Q: And the half-life (single dose, PK lead-in phase of dose-escalation phase, 100 mg (n=3), mean, read-out: T1/2 (converted))?
A: Its half-life is 90.2 h.

Q: What about the Tmax (single dose, PK lead-in phase of dose-escalation phase, 100 mg (n=3), mean, read-out: Tmax) of the same compound?
A: The Tmax was 2.8 h.

Q: What about the AUC(0-t) [5] of the same compound?
A: Its AUC(0-t) is 2550 ng·h/mL.

Q: And the MRT last [5]?
A: The MRT last was 47.4 h.

Q: What about the AUC(0-inf) [5] of the same compound?
A: The AUC(0-inf) was 3110 ng·h/mL.

Q: And the Cmax [5]?
A: Its Cmax is 140 ng/mL.

Q: What about the half-life (single dose, PK lead-in phase of dose-escalation phase, 200 mg (n=3), mean, read-out: T1/2 (converted)) of the same compound?
A: The half-life was 83.5 h.

Q: What about the Tmax (single dose, PK lead-in phase of dose-escalation phase, 200 mg (n=3), mean, read-out: Tmax) of the same compound?
A: The Tmax was 2.7 h.

Q: What about the AUC(0-t) [6] of the same compound?
A: The AUC(0-t) was 4340 ng·h/mL.

Q: And the MRT last [6]?
A: Its MRT last is 46.2 h.

Q: And the AUC(0-inf) [6]?
A: The AUC(0-inf) was 5110 ng·h/mL.

Q: What about the Cmax [6] of the same compound?
A: Its Cmax is 246 ng/mL.

Q: What about the half-life (single dose, PK lead-in phase of dose-escalation phase, 300 mg (n=3), mean, read-out: T1/2 (converted)) of the same compound?
A: Its half-life is 78.5 h.

Q: What about the Tmax (single dose, PK lead-in phase of dose-escalation phase, 300 mg (n=3), mean, read-out: Tmax) of the same compound?
A: The Tmax was 2.5 h.

Q: What about the AUC(0-t) [7] of the same compound?
A: Its AUC(0-t) is 9880 ng·h/mL.

Q: What about the MRT last [7] of the same compound?
A: Its MRT last is 40.5 h.

Q: What about the AUC(0-inf) [7] of the same compound?
A: Its AUC(0-inf) is 11500 ng·h/mL.

Q: And the Cmax [7]?
A: The Cmax was 544 ng/mL.

Q: What about the half-life (single dose, PK lead-in phase of dose-escalation phase, 450 mg (n=4), mean, read-out: T1/2 (converted)) of the same compound?
A: The half-life was 78.7 h.

Q: And the Tmax (single dose, PK lead-in phase of dose-escalation phase, 450 mg (n=4), mean, read-out: Tmax)?
A: Its Tmax is 3.3 h.

Q: What about the AUC(0-t) [8] of the same compound?
A: The AUC(0-t) was 9640 ng·h/mL.

Q: And the MRT last [8]?
A: Its MRT last is 43.3 h.

Q: What about the AUC(0-inf) [8] of the same compound?
A: The AUC(0-inf) was 11200 ng·h/mL.

Q: And the Cmax [8]?
A: The Cmax was 452 ng/mL.

Q: And the half-life (single dose, PK lead-in phase of dose-escalation phase, 600 mg (n=7), mean, read-out: T1/2 (converted))?
A: The half-life was 78.7 h.

Q: And the Tmax (single dose, PK lead-in phase of dose-escalation phase, 600 mg (n=7), mean, read-out: Tmax)?
A: Its Tmax is 3.9 h.

Q: What about the AUC(0-t) [9] of the same compound?
A: The AUC(0-t) was 9820 ng·h/mL.

Q: What about the MRT last [9] of the same compound?
A: Its MRT last is 42 h.

Q: And the AUC(0-inf) [9]?
A: The AUC(0-inf) was 11200 ng·h/mL.

Q: And the Cmax [9]?
A: Its Cmax is 421 ng/mL.

Q: What about the half-life (single dose, PK lead-in phase of dose-escalation phase, 800 mg (n=3), mean, read-out: T1/2 (converted)) of the same compound?
A: The half-life was 77.2 h.

Q: And the Tmax (single dose, PK lead-in phase of dose-escalation phase, 800 mg (n=3), mean, read-out: Tmax)?
A: Its Tmax is 3.7 h.

Q: And the half-life (single-dose administration, read-out: mean T1/2 across dose cohorts)?
A: Its half-life is 16.7 to 90.2 h.

Q: And the Tmax (single-dose administration, read-out: mean Tmax across dose cohorts)?
A: Its Tmax is 2 to 4.6 h.

Q: What about the MRT last (cycle 1 day 28 of dose-expansion phase, 600 mg (n=10), mean) of the same compound?
A: The MRT last was 10.9 h.

Q: What about the half-life (single dose, cycle 1 day 1 of dose-expansion phase, 450 mg (n=10), mean, read-out: T1/2 (converted)) of the same compound?
A: The half-life was 23.4 h.
